Assay results: patent US20060276393A1, “Novel compositions for preventing and treating neurodegenerative and blood coagulation disorders” (Sirtris Pharmaceuticals, Inc., priority 2005, published 2006)

Experiments:
recombinant SIR-2.1 = molecular target: T1, recombinant SIR-2.1 (Caenorhabditis elegans, UniProt Q21921)
T1 sequence (Q21921 1-607): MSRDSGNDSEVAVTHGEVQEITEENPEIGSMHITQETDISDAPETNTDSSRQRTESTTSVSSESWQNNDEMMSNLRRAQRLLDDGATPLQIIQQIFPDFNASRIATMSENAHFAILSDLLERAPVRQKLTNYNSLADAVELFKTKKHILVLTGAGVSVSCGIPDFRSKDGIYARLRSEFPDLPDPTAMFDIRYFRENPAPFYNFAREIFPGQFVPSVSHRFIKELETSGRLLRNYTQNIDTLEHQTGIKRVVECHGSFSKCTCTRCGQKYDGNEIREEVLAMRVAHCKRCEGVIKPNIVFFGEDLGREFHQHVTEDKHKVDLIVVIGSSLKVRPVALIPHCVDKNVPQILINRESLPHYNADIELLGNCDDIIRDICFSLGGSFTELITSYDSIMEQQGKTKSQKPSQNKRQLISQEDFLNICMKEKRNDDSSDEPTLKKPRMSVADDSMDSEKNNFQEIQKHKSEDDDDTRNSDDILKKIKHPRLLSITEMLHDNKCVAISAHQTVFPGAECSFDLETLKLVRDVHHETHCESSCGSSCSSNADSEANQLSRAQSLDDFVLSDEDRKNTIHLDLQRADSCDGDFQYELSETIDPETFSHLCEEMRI
Method: STACs were dissolved at 10 mM in dimethylsulfoxide (DMSO) the day of the assay. […] Drosophila S2 cells were grown in Schneider media with fetal calf serum at 23-28° C., seeded at 9×10^4 cells/well, grown overnight and then exposed to 1 μM TSA, 500 μM polyphenols, and 200 μM FdL for 2 hr. Deacetylation of FdL with lysate from whole cells was determined as described^4. Unless otherwise indicated all initial rate measurements were means of three or more replicates obtained with single incubation times, at which point 5% or less of the substrate initially present was deacetylated.

D. melanogaster = D. melanogaster lifespan; format: in vivo
Method: Females (a) and males (b) with loss-of-function genotype dSir2^4.5/dSir2^5.26. Females (c) and males (d) with strong hypomorphic genotype dSir2^17/dSir2^KG00871.
Survival assays were conducted independently with adult D. melanogaster in two laboratories. In the first laboratory, all trials used an yw marked wild-type strain. Larvae were reared on standard cornmeal-sugar-yeast (CSY) agar diet (cornmeal 5%, sucrose 10.5%, SAF yeast 2%, and agar 0.7%). Newly eclosed adults were placed in 1 L demography cages with approximately 75 males and 75 females. Three to four replicate 1 L demography cages were used for each treatment group in each trial. Every two days, dead flies were removed and scored, and food vials were replenished. Food vials contained cornmeal-sugar-yeast diet with SAF yeast as either 2% or 3% by weight. Test compounds in 100 μl of EtOH (or blank EtOH in controls) were mixed into melted aliquots of the adult food media to make a final concentration of 0, 10 or 100 μM. Fresh stock solutions and adult media were prepared weekly. In the second laboratory, lifespan trials were conducted with the wild type strain Canton-S, dSir2^4.5 and dSir2^5.26 (S. Smolik, University of Oregon), dSir2^17 (S. Astrom, Stockholm University, Sweden), and dSir2^KG00871 (Drosophila Stock Center, Bloomington, Ind.). Larvae for all tests were reared on standard cornmeal-sugar-yeast diet. Newly eclosed adults were incubated in plastic shell vials containing 5 ml of 15% sugar-yeast diet (15% SY) or 5% sugar-yeast (5% SY) diet (15% SY: 15% yeast, 15% sucrose, 2% agar; 5% SY: 5% yeast, 5% sucrose, 2% agar as per Ref. ^20). In all trials, ˜20 males with ˜20 females were placed into each of 10 vials/treatment group. Every two days, flies were passed into new vials and dead flies were counted. […] Final compound concentrations were 0, 10, 100 or 200 μM. Fresh stock solution and adult media was prepared weekly.

[1] = tested on: acetylated K382 of p53 in U2OS osteosarcoma cells; test: p53 Ac-K382 Western blot after UV radiation; format: cell-based, human
Method: FdL (200 μM) is added to growth media and cells incubated for 1-3 hours to allow FdL to enter the cells and the lysine-deacetylated product (deAc-FdL) to accumulate intracellularly. Cells are lysed with detergent in the presence of 1 μM TSA, 1 mM nicotinamide. […] Cells were grown adherently in DMEM/10% FCS and treated for 1 hour with 200 μM FdL, 1 μM TSA and either vehicle (0.5% final DMSO, Control) or 500 μM of the indicated compound. Intracellular accumulation of deAc-FdL was then determined as described briefly in a. […] Lysates were prepared and analyzed as above.

Human 293 = test: Survival of 293 cells; conditions: 50 micromolar
Description: The number of live cells each time point was counted using a Coulter counter.

Human recombinant SIRT2 = molecular target: T2, Human recombinant SIRT2 (Homo sapiens, UniProt Q8IXJ6); test: SIRT2 deacetylation assay; format: biochemical; conditions: increasing resveratrol; 25 μM Fluor de Lys-SIRT2, 25 μM NAD+, 20 min 37° C.
T2 sequence (Q8IXJ6 1-389): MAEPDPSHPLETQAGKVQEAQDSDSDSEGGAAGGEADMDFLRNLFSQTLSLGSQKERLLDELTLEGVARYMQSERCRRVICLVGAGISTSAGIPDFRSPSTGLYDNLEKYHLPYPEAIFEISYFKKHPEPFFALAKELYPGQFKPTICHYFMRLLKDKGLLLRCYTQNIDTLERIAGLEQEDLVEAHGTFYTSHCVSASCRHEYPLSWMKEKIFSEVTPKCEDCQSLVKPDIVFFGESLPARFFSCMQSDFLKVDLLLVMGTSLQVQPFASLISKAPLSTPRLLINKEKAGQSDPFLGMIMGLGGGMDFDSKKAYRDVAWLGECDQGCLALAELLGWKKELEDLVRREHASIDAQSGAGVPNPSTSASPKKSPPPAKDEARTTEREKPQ
Description: Yeast Sir2 and human SIRT1 are very homologous and differ from human SIRT2 by the addition of an N-terminal domain that is absent in SIRT2. […] Thus, based on the difference in structure of SIRT1 and SIRT2, i.e., the absence of an N-terminal domain (see FIG. 8), it is believed that the N-terminal domain of SIRT1 and Sir2 is necessary for activation by the compounds described herein. In particular, it is likely that the activator compounds described herein interact with the N-terminal portion of sirtuins. The N-terminal portion of SIRT1 that is necessary for the action of the compounds is from about amino acid 1 to about amino acid 176, and that of Sir2 is from about amino acid 1 to about amino acid 175.

Compound: Oc1ccc(/C=C/c2cc(O)cc(O)c2)cc1 [Resveratrol, 3,5,4′-Trihydroxy-trans-stilbene]
- Km of SIR-2.1 for the co-substrate NAD+ (recombinant SIR-2.1; 100 μM resveratrol, 10 μM Fluor de Lys): lowered the Km of SIR-2.1
- stimulated deacetylation (maximum) (recombinant SIR-2.1; dose-dependent, Fluor de Lys): up to 2.5 fold
- increased lifespan (maximum) (D. melanogaster; Canton-S/dSir2^KG0087): up to 17%
- lifespan in flies lacking or severely decreased in dSir2 (D. melanogaster; dSir2^4.5/dSir2^5.26 or dSir2^17/dSir2^KG00871, 100 μM): failed to extend lifespan
- longevity in flies homozygous for a hypomorphic dSir2 allele (D. melanogaster; dSir2^KG0087/dSir2^KG0087): a small but statistically significant amount
- longevity on restricted diet (D. melanogaster; restricted diet): neither resveratrol nor fisetin further increased longevity
- lifespan extended (maximum) (D. melanogaster; wild type Canton-S and yw, males and females, normal diet): up to 29%
- level of Ac-K382 of p53 ([1]; 0.5 μM resveratrol, 4 hours pre-treatment, UV): marked decrease in the level of Ac-K382
- level of Ac-K382 of p53 ([1]; >50 μM resveratrol): the effect was reversed
- Survival of 293 cells (Human 293; 0 h): 100%
- Survival of 293 cells (Human 293; 48 h): 5%
- Survival of 293 cells (Human 293; 96 h): 0%
- SIRT2 activity (Human recombinant SIRT2): decrease SIRT2 activity
